Measurements as given in paper PMC3913682, “A Monoclonal Antibody TrkB Receptor Agonist as a Potential Therapeutic for Huntington’s Disease” (PLoS ONE, 2014).

Tests used:
[1] = tested on: TrkB phosphorylation; assay: Western blot of TrkB phosphorylation in rat primary cortico-striatal co-cultures; assay type: cell-based; conditions: 15 minutes; non-transfected; Figure 7B, C
Description: (§1) Clarified cell lysates were resolved by SDS-PAGE, blotted onto nitrocellulose membranes and immunoprobed with the relevant primary and secondary antibody combinations. Anti-pTrkB Tyr^516 (4619), anti-pTrkB Tyr^706/707 (4621), anti-pTrkB, Tyr^816 (4168), anti-pERK1/2 […], anti-pAKT […], anti-TrkB (4603), anti-AKT (4685) and anti-ERK1/2 (4695) were sourced from Cell Signalling Technologies. Anti-GAPDH (IMG-5143A) was obtained from Imgenex; Goat anti-rabbit HRP conjugate (PO448) and Goat anti-mouse HRP conjugate (PO447) were sourced from Dako. Goat anti-mouse 800CW conjugate and Goat anti-rabbit 680 conjugate were sourced from LI-COR. Immunoreactive signals were detected using enhanced chemiluminescence reagent (Amersham) or using the Odyssey infra-red reader.

[2] = biological target: TrkB (Homo sapiens, UniProt Q16620); parameters: host or cells: CHO-K1; conditions: cited from earlier work
[3] = Solubility assay under CellSensor assay conditions (HPLC-UV); assay type: physicochemical; conditions: assay buffer, 0.5% DMSO; for Concentration @ t = 0: 0 hours; for Concentration @ t = 3: 3 hours; for Concentration @ t = 7: 7 hours
Experimental: To align with the functional data, all compound samples and dilutions were prepared using the CellSensor® assay conditions that include: assay buffer, plates, sample volumes and the same timeframe. The assay incubation time was 7 hours. 0, 3 and 7 hour samples were analysed, in triplicate, in the final assay buffer (DMEM/Glutamax + NEAA + 20 mM Hepes pH7.4 + 0.01% BSA, final DMSO concentration 0.5%) at nominal compound concentrations of 5, 20 and 50 µM. […] The 7 and 3 hour samples were prepared at times which allowed simultaneous filtering and sample analysis.

[4] = tested on: striatal neurons; assay: Primary neuronal mHTT-induced cell death assay (cortico-striatal co-culture); assay type: cell-based, rat; conditions: Figure 7A
Description: Cortical and striatal neurons were isolated from E18 rat embryos and separately transfected with a HTT exon1 fragment containing 73 CAG repeats (HTTN90Q73), together with a plasmid encoding for either a green AcGFP or a red AsRed fluorescent reporter before being plated on glial cells and treated with candidate pharmacological agents. After 5 days in culture, the number of fluorescent cells remaining was counted using an automated high content imaging and analysis platform (GE Healthcare InCell 2000) and any changes in neuronal survival quantified.

[5] = tested on: TrkB; parameters: method as in PMID 20407211; conditions: hippocampal neurons; cited from earlier work
[6] = tested on: TrkB, AKT and ERK1/2 phosphorylation; assay: Western blot of TrkB, AKT and ERK1/2 phosphorylation in TrkB-NFAT-bla CHO-K1 cells; assay type: cell-based; conditions: LM22A-4 at low (10 µM) and high (83 µM), N-acetyl serotonin at high (83 µM) concentration; Figure 6E
Description: as §1

TrkB (Homo sapiens, UniProt Q16620), sequence (Q16620 32-822): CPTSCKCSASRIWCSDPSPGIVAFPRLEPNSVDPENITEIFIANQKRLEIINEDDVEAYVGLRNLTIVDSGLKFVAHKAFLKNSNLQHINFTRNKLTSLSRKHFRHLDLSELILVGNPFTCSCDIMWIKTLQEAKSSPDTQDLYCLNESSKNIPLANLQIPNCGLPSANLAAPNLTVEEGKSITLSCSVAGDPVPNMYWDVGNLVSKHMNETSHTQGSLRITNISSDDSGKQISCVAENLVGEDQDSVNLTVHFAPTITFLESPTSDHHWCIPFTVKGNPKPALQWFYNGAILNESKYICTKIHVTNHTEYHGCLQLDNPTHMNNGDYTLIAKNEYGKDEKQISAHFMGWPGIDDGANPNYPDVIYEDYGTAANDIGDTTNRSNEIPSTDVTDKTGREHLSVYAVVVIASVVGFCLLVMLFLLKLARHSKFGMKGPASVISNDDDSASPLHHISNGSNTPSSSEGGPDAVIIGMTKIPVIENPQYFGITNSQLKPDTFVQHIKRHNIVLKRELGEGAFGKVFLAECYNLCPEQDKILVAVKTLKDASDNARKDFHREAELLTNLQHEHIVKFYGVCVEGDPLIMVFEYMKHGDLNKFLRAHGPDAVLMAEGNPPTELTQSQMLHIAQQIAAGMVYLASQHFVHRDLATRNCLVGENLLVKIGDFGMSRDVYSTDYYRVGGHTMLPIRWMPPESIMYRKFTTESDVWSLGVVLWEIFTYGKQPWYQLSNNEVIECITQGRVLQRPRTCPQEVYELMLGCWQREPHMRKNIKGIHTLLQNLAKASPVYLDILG

## O=C(NCCO)c1cc(C(=O)NCCO)cc(C(=O)NCCO)c1 [LM22A-4]
[1]
  Induction of TrkB phosphorylation (in words): failed to mimic the ability of BDNF
[2]
  Published in vitro activity (in words): TrkB agonist; Neuroprotective
  Published in vitro activity: Activity: 0.5 to 500 nM
[3]; nominal concentration 5 µM
  Concentration @ t = 0: 7.2 µM
  Concentration @ t = 3: 7.8 µM
  Concentration @ t = 7: 11 µM
[3]; nominal concentration 20 µM
  Concentration @ t = 0: 17 µM
  Concentration @ t = 3: 17 µM
  Concentration @ t = 7: 20 µM
[3]; nominal concentration 50 µM
  Concentration @ t = 0: 59 µM
  Concentration @ t = 3: 58 µM
  Concentration @ t = 7: 64 µM
[4]
  Protection of striatal neurons from mHTT-induced cell death (in words): failed to mimic the ability of BDNF
[5]
  Induction of TrkB-Tyr516 phosphorylation: ~30 % of the efficacy of BDNF
[6]
  Basal phospho-ERK1/2 immunoreactive bands: absence of immunoreactive bands
